{"source": "ChEMBL document CHEMBL1201862", "about": "“PubChem BioAssay data set” (2004)", "test_in_all_cases": "NCI tumour cell line growth inhibition, 48 h", "key": {"[1]": {"system": "OVCAR-8"}, "[2]": {"system": "HCT-15"}, "[3]": {"system": "KM-20L2"}, "[4]": {"system": "OVCAR-4"}, "[5]": {"system": "EKVX"}, "[6]": {"system": "SW-620"}, "[7]": {"system": "SK-MEL-2"}, "[8]": {"system": "CCRF-CEM"}, "[9]": {"system": "HOP-92"}, "[10]": {"system": "DMS-273"}, "[11]": {"system": "SN12C"}, "[12]": {"system": "SF-295"}, "[13]": {"system": "HL-60"}, "[14]": {"system": "KM12"}, "[15]": {"system": "K562"}, "[16]": {"system": "LXFL 529"}, "[17]": {"system": "OVCAR-5"}, "[18]": {"system": "SNB-19"}, "[19]": {"system": "IGROV-1"}, "[20]": {"system": "SNB-78"}, "[21]": {"system": "MOLT-4"}, "[22]": {"system": "NCI-H226"}, "[23]": {"system": "SF-268"}, "[24]": {"system": "UO-31"}, "[25]": {"system": "HCC 2998"}, "[26]": {"system": "SK-MEL-5"}, "[27]": {"system": "LOX IMVI"}, "[28]": {"system": "U-251"}, "[29]": {"system": "NCI-H23"}, "[30]": {"system": "HCT-116"}, "[31]": {"system": "SNB-75"}, "[32]": {"system": "SF-539"}, "[33]": {"system": "OVCAR-3"}, "[34]": {"system": "NCI-H522"}, "[35]": {"system": "DLD-1"}, "[36]": {"system": "XF498"}, "[37]": {"system": "ACHN"}, "[38]": {"system": "SK-MEL-28"}, "[39]": {"system": "786-0"}, "[40]": {"system": "A549"}, "[41]": {"system": "COLO 205"}, "[42]": {"system": "RPMI-8226"}, "[43]": {"system": "M19-MEL"}, "[44]": {"system": "HT-29"}, "[45]": {"system": "UACC-257"}, "[46]": {"system": "SK-OV-3"}, "[47]": {"system": "TK-10"}, "[48]": {"system": "M14"}, "[49]": {"system": "NCI-H460"}, "[50]": {"system": "DMS-114"}, "[51]": {"system": "HOP-18"}, "[52]": {"system": "Malme-3M"}, "[53]": {"system": "RXF 393"}, "[54]": {"system": "UACC-62"}, "[55]": {"system": "A498"}, "[56]": {"system": "HOP-62"}, "[57]": {"system": "CAKI-1"}}, "note": "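Method: 48-hour compound exposure of cells in 96-well plates, five concentrations, linear interpolation of endpoints. At the GI50, growth is halved.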 The source made the active and inactive calls. Cut-off read from the data, not from the text of the source: active = GI50 up to about 1.1 µM and inactive = higher.", "data": [{"smiles": "COc1c(C)cc2c(C(C)C)c(O)c(O)c(C=O)c2c1O", "values": [{"measurement": "GI50", "setting": "[1]", "result": "27.4 µM (inactive)"}, {"measurement": "GI50", "setting": "[2]", "result": 24.5, "unit": "µM"}, {"measurement": "GI50", "setting": "[3]", "result": "19.7 µM (inactive)"}, {"measurement": "GI50", "setting": "[4]", "result": "17.2 µM (inactive)"}, {"measurement": "GI50", "setting": "[5]", "result": "27 µM (inactive)"}, {"measurement": "GI50", "setting": "[6]", "result": "40.6 µM (inactive)"}, {"measurement": "GI50", "setting": "[7]", "result": "15.8 µM (inactive)"}, {"measurement": "GI50", "setting": "[8]", "result": "18.4 µM (inactive)"}, {"measurement": "GI50", "setting": "[9]", "result": "35.3 µM (inactive)"}, {"measurement": "GI50", "setting": "[10]", "result": "23 µM (inactive)"}, {"measurement": "GI50", "setting": "[11]", "result": "27.7 µM (inactive)"}, {"measurement": "GI50", "setting": "[12]", "result": "28.8 µM (inactive)"}, {"measurement": "GI50", "setting": "[13]", "result": "25.9 µM (inactive)"}, {"measurement": "GI50", "setting": "[14]", "result": "18.3 µM (inactive)"}, {"measurement": "GI50", "setting": "[15]", "result": "17.2 µM (inactive)"}, {"measurement": "GI50", "setting": "[16]", "result": "24.8 µM (inactive)"}, {"measurement": "GI50", "setting": "[17]", "result": "28.9 µM (inactive)"}, {"measurement": "GI50", "setting": "[18]", "result": "35.7 µM (inactive)"}, {"measurement": "GI50", "setting": "[19]", "result": "30.5 µM (inactive)"}, {"measurement": "GI50", "setting": "[20]", "result": "27.9 µM (inactive)"}, {"measurement": "GI50", "setting": "[21]", "result": "55.7 µM (inactive)"}, {"measurement": "GI50", "setting": "[22]", "result": "18.2 µM (inactive)"}, {"measurement": "GI50", "setting": "[23]", "result": "38.4 µM (inactive)"}, {"measurement": "GI50", "setting": "[24]", "result": "31.3 µM (inactive)"}, {"measurement": "GI50", "setting": "[25]", "result": "33.9 µM (inactive)"}, {"measurement": "GI50", "setting": "[26]", "result": "16 µM (inactive)"}, {"measurement": "GI50", "setting": "[27]", "result": "24 µM (inactive)"}, {"measurement": "GI50", "setting": "[28]", "result": "18 µM (inactive)"}, {"measurement": "GI50", "setting": "[29]", "result": "18.3 µM (inactive)"}, {"measurement": "GI50", "setting": "[30]", "result": "20.7 µM (inactive)"}, {"measurement": "GI50", "setting": "[31]", "result": "25.4 µM (inactive)"}, {"measurement": "GI50", "setting": "[32]", "result": "17.8 µM (inactive)"}, {"measurement": "GI50", "setting": "[33]", "result": "18.9 µM (inactive)"}, {"measurement": "GI50", "setting": "[34]", "result": "25.6 µM (inactive)"}, {"measurement": "GI50", "setting": "[35]", "result": "32.1 µM (inactive)"}, {"measurement": "GI50", "setting": "[36]", "result": "39 µM (inactive)"}, {"measurement": "GI50", "setting": "[37]", "result": "29.6 µM (inactive)"}, {"measurement": "GI50", "setting": "[38]", "result": "22.4 µM (inactive)"}, {"measurement": "GI50", "setting": "[39]", "result": "26.4 µM (inactive)"}, {"measurement": "GI50", "setting": "[40]", "result": "31.7 µM (inactive)"}, {"measurement": "GI50", "setting": "[41]", "result": "16.4 µM (inactive)"}, {"measurement": "GI50", "setting": "[42]", "result": "37.9 µM (inactive)"}, {"measurement": "GI50", "setting": "[43]", "result": "26.5 µM (inactive)"}, {"measurement": "GI50", "setting": "[44]", "result": "13.3 µM (inactive)"}, {"measurement": "GI50", "setting": "[45]", "result": "21.4 µM (inactive)"}, {"measurement": "GI50", "setting": "[46]", "result": "29.9 µM (inactive)"}, {"measurement": "GI50", "setting": "[47]", "result": "37 µM (inactive)"}, {"measurement": "GI50", "setting": "[48]", "result": "23.2 µM (inactive)"}, {"measurement": "GI50", "setting": "[49]", "result": "25.9 µM (inactive)"}, {"measurement": "GI50", "setting": "[50]", "result": "17.8 µM (inactive)"}, {"measurement": "GI50", "setting": "[51]", "result": "14.9 µM (inactive)"}, {"measurement": "GI50", "setting": "[52]", "result": "16.2 µM (inactive)"}, {"measurement": "GI50", "setting": "[53]", "result": "21.6 µM (inactive)"}, {"measurement": "GI50", "setting": "[54]", "result": "20.6 µM (inactive)"}]}, {"smiles": "O=C(O)CCc1coc2ccc(O)cc12", "values": [{"measurement": "GI50", "setting": "[1]", "result": "> 100 µM (inactive)"}, {"measurement": "GI50", "setting": "[2]", "result": "> 100", "unit": "µM"}, {"measurement": "GI50", "setting": "[3]", "result": "> 100 µM (inactive)"}, {"measurement": "GI50", "setting": "[4]", "result": "> 100 µM (inactive)"}, {"measurement": "GI50", "setting": "[5]", "result": "> 100 µM (inactive)"}, {"measurement": "GI50", "setting": "[6]", "result": "> 100 µM (inactive)"}, {"measurement": "GI50", "setting": "[8]", "result": "> 100 µM (inactive)"}, {"measurement": "GI50", "setting": "[9]", "result": "75.7 µM (inactive)"}, {"measurement": "GI50", "setting": "[10]", "result": "> 100 µM (inactive)"}, {"measurement": "GI50", "setting": "[11]", "result": "> 100 µM (inactive)"}, {"measurement": "GI50", "setting": "[12]", "result": "> 100 µM (inactive)"}, {"measurement": "GI50", "setting": "[13]", "result": "> 100 µM (inactive)"}, {"measurement": "GI50", "setting": "[15]", "result": "> 100 µM (inactive)"}, {"measurement": "GI50", "setting": "[16]", "result": "> 100 µM (inactive)"}, {"measurement": "GI50", "setting": "[18]", "result": "> 100 µM (inactive)"}, {"measurement": "GI50", "setting": "[19]", "result": "> 100 µM (inactive)"}, {"measurement": "GI50", "setting": "[20]", "result": "> 100 µM (inactive)"}, {"measurement": "GI50", "setting": "[21]", "result": "> 100 µM (inactive)"}, {"measurement": "GI50", "setting": "[55]", "result": "> 100 µM (inactive)"}, {"measurement": "GI50", "setting": "[25]", "result": "> 100 µM (inactive)"}, {"measurement": "GI50", "setting": "[26]", "result": "> 100 µM (inactive)"}, {"measurement": "GI50", "setting": "[27]", "result": "> 100 µM (inactive)"}, {"measurement": "GI50", "setting": "[28]", "result": "> 100 µM (inactive)"}, {"measurement": "GI50", "setting": "[29]", "result": "> 100 µM (inactive)"}, {"measurement": "GI50", "setting": "[56]", "result": "> 100 µM (inactive)"}, {"measurement": "GI50", "setting": "[30]", "result": "> 100 µM (inactive)"}, {"measurement": "GI50", "setting": "[31]", "result": "> 100 µM (inactive)"}, {"measurement": "GI50", "setting": "[32]", "result": "> 100 µM (inactive)"}, {"measurement": "GI50", "setting": "[33]", "result": "> 100 µM (inactive)"}, {"measurement": "GI50", "setting": "[35]", "result": "> 100 µM (inactive)"}, {"measurement": "GI50", "setting": "[36]", "result": "> 100 µM (inactive)"}, {"measurement": "GI50", "setting": "[37]", "result": "> 100 µM (inactive)"}, {"measurement": "GI50", "setting": "[38]", "result": "> 100 µM (inactive)"}, {"measurement": "GI50", "setting": "[39]", "result": "> 100 µM (inactive)"}, {"measurement": "GI50", "setting": "[40]", "result": "> 100 µM (inactive)"}, {"measurement": "GI50", "setting": "[41]", "result": "> 100 µM (inactive)"}, {"measurement": "GI50", "setting": "[42]", "result": "> 100 µM (inactive)"}, {"measurement": "GI50", "setting": "[43]", "result": "> 100 µM (inactive)"}, {"measurement": "GI50", "setting": "[44]", "result": "> 100 µM (inactive)"}, {"measurement": "GI50", "setting": "[45]", "result": "> 100 µM (inactive)"}, {"measurement": "GI50", "setting": "[46]", "result": "> 100 µM (inactive)"}, {"measurement": "GI50", "setting": "[47]", "result": "> 100 µM (inactive)"}, {"measurement": "GI50", "setting": "[48]", "result": "> 100 µM (inactive)"}, {"measurement": "GI50", "setting": "[49]", "result": "> 100 µM (inactive)"}, {"measurement": "GI50", "setting": "[50]", "result": "> 100 µM (inactive)"}, {"measurement": "GI50", "setting": "[51]", "result": "> 100 µM (inactive)"}, {"measurement": "GI50", "setting": "[57]", "result": "> 100 µM (inactive)"}, {"measurement": "GI50", "setting": "[53]", "result": "> 100 µM (inactive)"}, {"measurement": "GI50", "setting": "[54]", "result": "> 100 µM (inactive)"}]}]}
